PubChem BioAssay (NCI)
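At the GI50, growth is halved. TGI denotes the concentration required for complete inhibition of growth.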

Assays:
Assay in all cases: NCI-60 cell line screen, 384-well format
ACHN renal = tested on: ACHN renal
BT-549 breast = tested on: BT-549 breast
CCRF-CEM leukemia = tested on: CCRF-CEM leukemia
IGROV1 ovarian = tested on: IGROV1 ovarian
NCI-H226 lung = tested on: NCI-H226 lung
NCI-H522 lung = tested on: NCI-H522 lung
OVCAR-3 ovarian = tested on: OVCAR-3 ovarian
PC-3 prostate = tested on: PC-3 prostate
RPMI-8226 leukemia = tested on: RPMI-8226 leukemia
SF-268 CNS = tested on: SF-268 CNS
SNB-75 CNS = tested on: SNB-75 CNS
SR leukemia = tested on: SR leukemia
T-47D breast = tested on: T-47D breast

N#Cc1c(N)nc(N)nc1N[C@H](c1nc2c(F)ccc(Cl)c2c(=O)n1-c1cccnc1)C1CC1
GI50 (ACHN renal): 7.04 µM
TGI (ACHN renal): > 100 µM
GI50 (BT-549 breast): 0.711 µM
TGI (BT-549 breast): 12.9 µM
GI50 (CCRF-CEM leukemia): 1.42 µM
TGI (CCRF-CEM leukemia): 10.6 µM
GI50 (IGROV1 ovarian): 1.64 µM
TGI (IGROV1 ovarian): 4.18 µM
GI50 (NCI-H226 lung): 15.6 µM
TGI (NCI-H226 lung): > 57.7 µM
GI50 (NCI-H522 lung): 16.9 µM
TGI (NCI-H522 lung): 48.5 µM
GI50 (OVCAR-3 ovarian): 0.728 µM
TGI (OVCAR-3 ovarian): 6.73 µM
GI50 (PC-3 prostate): 1.08 µM
TGI (PC-3 prostate): 14 µM
GI50 (RPMI-8226 leukemia): 3.36 µM
TGI (RPMI-8226 leukemia): 10.3 µM
GI50 (SF-268 CNS): 13.9 µM
TGI (SF-268 CNS): 51.1 µM
GI50 (SNB-75 CNS): 0.67 µM
TGI (SNB-75 CNS): 5.1 µM
GI50 (SR leukemia): 10.5 µM
TGI (SR leukemia): 22.5 µM
GI50 (T-47D breast): 1.02 µM
TGI (T-47D breast): 5.99 µM
